System: xylanase Shearzyme
Test: Burst active site titration of xylanase
Type: biochemical
Conditions: for Burst B: pH 5.0, room temperature
Method: The synthesized burst active site titrant 2,4-dinitrophenyl 2-deoxy-2-flouro-β-D-xylopyranoside was dissolved in Milli Q water. 100 μl dissolved titrant was mixed with 50 μl assay buffer (50 mM sodium acetate, 0.0225% Brij 35, pH 5.0) and 50 μl of a purified sample of the commercial xylanase Shearzyme (available from Novozymes) diluted in Milli Q water in the wells of a microtiter plate. Final concentrations of 2,4-dinitrophenyl 2-deoxy-2-flouro-β-D-xylopyranoside were 0.5 mM and 1 mM, whereas the xylanase was added to give final absorbances at 280 nm of 13.4, 6.7 and 3.3. After mixing, absorbance was read at 405 nm at room temperature every 7 min for 30 hours using a SpectraMax Plus (Molecular Devices) microtiter plate reader. After subtraction of absorbances read in wells with same concentration of titrant but without enzyme, the measurements were fitted to the equation: A405=B*(1−exp(−(t+LT)*ln(2)/T1/2))+S*(t+LT)
where A405 is the absorbance at 405 nm, B is the burst in absorbance at 405 nm, t is the time from first measurement of absorbance, LT is the lag time from mixing of the reagents to first measurement of absorbance, T1/2 is the half time for the exponential burst phase and S is the slope due to hydrolysis of the enzyme 2-deoxy-2-fluoro-β-D-xylopyranose complex.

[1] = Xylanase A280 3.3, titrant 0.5 mM
[2] = Xylanase A280 3.3, titrant 1 mM
[3] = Xylanase A280 6.7, titrant 0.5 mM
[4] = Xylanase A280 6.7, titrant 1 mM
[5] = Xylanase A280 13.4, titrant 0.5 mM
[6] = Xylanase A280 13.4, titrant 1 mM

**Q.** For O=[N+]([O-])c1ccc(O[C@@H]2OC[C@@H](O)[C@H](O)[C@H]2F)c([N+](=O)[O-])c1 [2,4-dinitrophenyl 2-deoxy-2-flouro-β-D-xylopyranoside], which “Slope S (hydrolysis of the enzyme 2-deoxy-2-fluoro-β-D-xylopyranose complex)” value (“Slope S” below) [1] is on record?
**A.** 0.00 A405/h

**Q.** What about the “Burst B” value [1] of the same compound?
**A.** 0.24 A405

**Q.** And the “Slope S” value [2]?
**A.** 0.00 A405/h

**Q.** What about the “Burst B” value [2] of the same compound?
**A.** 0.23 A405

**Q.** And the “Slope S” value [3]?
**A.** 0.00 A405/h

**Q.** What about the “Burst B” value [3] of the same compound?
**A.** 0.47 A405

**Q.** And the “Slope S” value [4]?
**A.** 0.00 A405/h

**Q.** What about the “Burst B” value [4] of the same compound?
**A.** 0.48 A405

**Q.** What about the “Slope S” value [5] of the same compound?
**A.** 0.00 A405/h

**Q.** And the “Burst B” value [5]?
**A.** 0.84 A405

**Q.** What about the “Slope S” value [6] of the same compound?
**A.** 0.00 A405/h

**Q.** And the “Burst B” value [6]?
**A.** 0.90 A405
